Assay results as given in US20050143291A1, “Methods and compositions for modulating apoptosis” (priority 2003, published 2005).
Blank lines part the entries; values can stand above or below the molecule they belong to.

Legend:
CHO cells = assay: Cell cycle analysis (FACS), CHO cells; type: cell-based, Chinese hamster; settings: CHO cells treated with UPR inducer, versus exponentially growing cells
Method: (§1) Cell Cycle Analysis—Following seeding, exponentially growing cells were trypsinized at different days and fixed in 70% ethanol. The fixed cells were treated with PBS containing 0.1% (v/v) Triton X-100, 0.2 mg/ml DNase-free RNase, and 20 μg/ml propidium iodide (PI) for 30 min at room temperature. The cell cycle distributions were analyzed by fluorescence-activated cell sorting (FACS) analysis (FACstar; BD Biosciences). The cell cycle distribution measurements were repeated three to four times.
(§2) In both the vector-transfected and GRP78 overexpressing cells, the percentage of G1, S, and G2 cells is similar.

T24/83 cells = assay: Cell cycle analysis (FACS), T24/83 cells; type: cell-based, human; settings: T24/83 cells treated with UPR inducer
Method: as §1, §2

Control cells = assay: % Survival (Colony Assay), control cells; type: cell-based
Method: (§3) Experiments were also performed to determine the anti-apoptotic effect conferred by overexpression of GRP78. This task was completed.
(§4) Clonogenic Survival Assays—Four thousand cells were seeded into 10-cm-diameter dishes. […] After drug treatment, the cells were grown in fresh medium for 10 to 14 days. The colonies were washed with ice-cold PBS, fixed with methanol, and stained with 10% Giemsa staining solution. The surviving fraction was determined by dividing the number of the surviving colonies in the drug-treated cells by the number of colonies in the non-treated control groups.

[1] = tested on: GRP78 Overexpression cells; assay: % Survival (Colony Assay), GRP78 overexpression; type: cell-based; settings: for % Survival (Colony Assay): GRP78 Overexpression; for effect of GRP78 overexpression on sensitivity to the drug: GRP78 overexpression versus control
Method: as §3, §4

GRP78 [2] = assay: Specificity of Grp78 siRNA in 293T cells (Western blot of GRP78, GRP94, HSP70); type: cell-based, human; settings: β-actin loading control
Source text: (§5) The concentrations of siRNA Grp78 II used were indicated on top.
When blasted against the human genomic sequence, this sequence is unique and in principle, should not affect any other human gene. […] The level of β-actin was used as loading control.

GRP78 [3] = assay: Suppression of GRP78 level by siRNA in MDA-MB-435 cells (Western blot); type: cell-based, human
Source text: as §5
(§6) This translates to more death in the cells treated with Grp78(II) siRNA than control siRNA targeted against the unrelated green fluorescence protein (FIG. 16).

MDA-MB-435 cells = assay: Etoposide-mediated cell death after siRNA in breast cancer cells; type: cell-based, human
Source text: as §6

caspase-7 = assay: In vitro caspase-7 activation assay, cell-free extracts with cytochrome c and dATP; type: biochemical, Chinese hamster
Method: FIG. 5, Panel C depicts cytoplasmic extracts prepared from CHO and C.1 cells and incubated with (+) or without (−) 10 μM cytochrome c and the various amounts of dATP (mM) as indicated.
Among the executor caspases, caspase-7 has been reported to be associated with the ER. Upon induction of apoptosis, procaspase-7 (35 kDa) is first converted into a 32-kDa intermediate, which is further processed into active 20- and 11-kDa subunits. […] Upon longer exposure of the autoradiogram, the active 20- and 11-kDa forms were evident in the etoposide-treated cells. When GRP78 was overexpressed, a low level of caspase-7 activation was detected in both the non-treated and etoposide-treated cells. […] In addition, upon addition of cytochrome c, caspase-7 activation was higher in CHO cells than C.1 cells, as evidenced by the increase in the active 20- and 11-kDa forms in the CHO samples compared with the C.1 samples.
The cells were suspended in 5 volumes of a hypotonic buffer (5 mM Tris-HCl, pH 7.4, 5 mM KCl, 1.5 mM MgCl2, 0.1 mM EGTA, pH 8.0, and 1 mM dithiothreitol) in the presence of 2 μg/ml leupeptin, pepstatin, and aprotinin protease inhibitors. After incubation on ice for 20 min, sucrose was added to a final concentration of 250 mM, and the cells were disrupted by douncing eight times in a 1-ml Wheaton Dounce homogenizer. The homogenate was centrifuged twice at […] for 10 min. […]

[4] = target: T1, glucose regulated protein 78 (GRP78), wild-type, as present in CHO cells (endogenous) and C.1 cells … (hamster, UniProt G3I8R9 19-654); assay: co-immunoprecipitation from CHO and C.1 whole cell extracts, Western blot
T1 construct: Protein in cell lysates used for co-immunoprecipitation, not purified; also called BiP; wild-type GRP78
T1 sequence (G3I8R9 19-654 limits assumed): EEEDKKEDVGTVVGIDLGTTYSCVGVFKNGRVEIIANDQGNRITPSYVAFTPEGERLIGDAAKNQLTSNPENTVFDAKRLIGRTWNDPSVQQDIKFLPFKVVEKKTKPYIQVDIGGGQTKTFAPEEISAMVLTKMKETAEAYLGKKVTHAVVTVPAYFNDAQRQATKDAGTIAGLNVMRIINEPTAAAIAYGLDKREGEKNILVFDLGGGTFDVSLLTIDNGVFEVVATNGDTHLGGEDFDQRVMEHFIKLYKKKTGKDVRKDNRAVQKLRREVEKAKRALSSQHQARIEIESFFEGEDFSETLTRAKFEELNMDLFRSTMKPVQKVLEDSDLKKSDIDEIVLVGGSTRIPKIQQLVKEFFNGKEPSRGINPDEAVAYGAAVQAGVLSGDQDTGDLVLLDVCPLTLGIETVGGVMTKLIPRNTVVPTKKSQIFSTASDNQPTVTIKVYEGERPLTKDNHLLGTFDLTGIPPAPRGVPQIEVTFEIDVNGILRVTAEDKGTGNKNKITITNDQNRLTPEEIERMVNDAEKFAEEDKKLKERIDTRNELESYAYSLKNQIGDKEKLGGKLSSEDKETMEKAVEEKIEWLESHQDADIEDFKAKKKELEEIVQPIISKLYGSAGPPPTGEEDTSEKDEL
Method: Co-immunoprecipitation Assays—2×10⁶ cells were lysed in 400 μl of extraction buffer (50 mM Tris-HCl, pH 7.5, 150 mM NaCl, 0.5% Nonidet P-40, and 0.5% deoxycholate, with protease inhibitor tablet (Roche Molecular Biochemicals)) and frozen and thawed three times. 500 μg of total protein extract from each sample was pretreated with 50 μl of protein A-Sepharose beads (Sigma) for 1 h at 4° C. prior to incubation with 5 μg of either anti-caspase-7 mouse monoclonal antibody or anticaspase-3 antibodies for 2 h. Following the incubation period, 50 μl of protein A-Sepharose beads was added, and the mixtures were rotated at 4° C. overnight. The beads were then washed five times with the extraction buffer. The immunoprecipitate was released from the washed beads by the addition of 30 μl of 1×SDS-PAGE sample loading buffer (50 mM Tris-HCl, pH 6.8, 100 mM dithiothreitol, 2% SDS, 0.1% bromphenol blue, 10% glycerol), followed by heating at 100° C. for 10 min. The supernatant obtained after centrifugation was resolved by SDS-PAGE and subjected to Western blot analysis to detect the co-immunoprecipitated proteins.

Molecule: tunicamycin
- cell cycle distribution (CHO cells): more cells in G1 and a dramatic reduction in S phase cells
- cell cycle distribution (T24/83 cells): a higher percentage of G1 cells and a lower percentage in S phase

Molecule: N.N.[Cl][Pt][Cl] [Cisplatin]
- % Survival (Colony Assay) (Control cells; cisplatin 3.3 μM): 43%
- % Survival (Colony Assay) (Control cells; cisplatin 6.6 μM): 3.7%
- % Survival (Colony Assay) (Control cells; cisplatin 9.9 μM): 0%
- % Survival (Colony Assay) (Control cells; cisplatin 13.0 μM): 0%
- % Survival (Colony Assay) ([1]; cisplatin 3.3 μM): 60%
- % Survival (Colony Assay) ([1]; cisplatin 6.6 μM): 50%
- % Survival (Colony Assay) ([1]; cisplatin 9.9 μM): 27%
- % Survival (Colony Assay) ([1]; cisplatin 13.0 μM): 16%
- effect of GRP78 overexpression on sensitivity to the drug [1]: confers resistance

Molecule: Grp78(II) siRNA: siRNA duplex 5′ AAGGTTACCCATGCAGTTGTT 3′ (SEQ ID NO:4) and complement (SEQ ID NO:17) targeting GRP78 (antisense AACAACTGCATGGGTAACCTT; listed as DNA, chemistry not given here; listed as Homo sapiens)
- effect on GRP78, GRP94 and HSP70 levels (GRP78 [2]): only GRP78 level is suppressed
- siRNA concentration that significantly suppresses GRP78 level (GRP78 [3]): ≥ 80 nM
- cell death versus control siRNA against green fluorescence protein (MDA-MB-435 cells): more death

Molecule: CC[C@@]1(O)C(=O)OCc2c1cc1n(c2=O)Cc2cc3ccccc3nc2-1 [Camptothecin]
- % Survival (Colony Assay) (Control cells; camptothecin 5 ng/ml): 68%
- % Survival (Colony Assay) (Control cells; camptothecin 20 ng/ml): 0.7%
- % Survival (Colony Assay) (Control cells; camptothecin 60 ng/ml): 0%
- % Survival (Colony Assay) ([1]; camptothecin 5 ng/ml): 82%
- % Survival (Colony Assay) ([1]; camptothecin 20 ng/ml): 22%
- % Survival (Colony Assay) ([1]; camptothecin 60 ng/ml): 2%
- effect of GRP78 overexpression on sensitivity to the drug [1]: confers resistance

Molecule: COc1cccc2c1C(=O)c1c(O)c3c(c(O)c1C2=O)C[C@@](O)(C(=O)CO)C[C@@H]3O[C@H]1C[C@H](N)[C@H](O)[C@H](C)O1 [Doxorubicin]
- % Survival (Colony Assay) (Control cells; doxorubicin 0.2 μg/ml): 80%
- % Survival (Colony Assay) (Control cells; doxorubicin 0.4 μg/ml): 42%
- % Survival (Colony Assay) (Control cells; doxorubicin 0.6 μg/ml): 2%
- % Survival (Colony Assay) (Control cells; doxorubicin 0.8 μg/ml): 0%
- % Survival (Colony Assay) (Control cells; doxorubicin 1.0 μg/ml): 0%
- % Survival (Colony Assay) ([1]; doxorubicin 0.2 μg/ml): 95%
- % Survival (Colony Assay) ([1]; doxorubicin 0.4 μg/ml): 84%
- % Survival (Colony Assay) ([1]; doxorubicin 0.6 μg/ml): 68%
- % Survival (Colony Assay) ([1]; doxorubicin 0.8 μg/ml): 48%
- % Survival (Colony Assay) ([1]; doxorubicin 1.0 μg/ml): 32%
- effect of GRP78 overexpression on sensitivity to the drug [1]: confers resistance

Molecule: C/C=C(/C)C(=O)O[C@H]1C(C)=C2[C@H]([C@@H]1OC(=O)CCCCCCC)[C@@](C)(OC(C)=O)C[C@H](OC(=O)CCC)[C@@]1(O)[C@H]2OC(=O)[C@@]1(C)O [thapsigargin]
- cell cycle distribution (CHO cells): more cells in G1 and a dramatic reduction in S phase cells
- cell cycle distribution (T24/83 cells): a higher percentage of G1 cells and a lower percentage in S phase

Molecule: Nc1ncnc2c1ncn2[C@H]1C[C@H](O)[C@@H](COP(=O)(O)OP(=O)(O)OP(=O)(O)O)O1 [dATP]
- caspase-7 forms in CHO versus C.1 extracts (caspase-7; 1 mM dATP with cytochrome c): equivalent amounts of the 32- and 20-kDa forms
- effect on GRP78-mediated suppression of caspase-7 activation (caspase-7; C.1 extracts in the presence of both cytochrome c and dATP): suppressive effect of the C.1 samples was reversed

- binding result [4]: no binding
B1: procaspase-3 (endogenous, CHO and C.1 cells) (enzyme)
chain: MENTENSVDSKSIKNLEPKIIHGSESMDSGISLDNSYKMDYPEMGLCIIVNNKNFHKSTGMTSRSGTDVDAANLRETFRNLKYGVRNKNDLTREGIVELMRDVSKEDHSKRSSFVCVLLSHGEEGIIFGTNGPVDLKKITNFFRGDRCRSLTGKPKLFIIQACRGTELDCGIETDSGVGDDMACHKIPVEADFLYAYSTAPGYYSWRNSKDGSWFIQSLCAMLKQYADKLEFMHILTRVNRKVATEFESFSFDATFHAKKQIPCIVSMLTKELYFYH
notes: Zymogen form, in whole cell extracts
